Measurements: ChEMBL document CHEMBL1201862, “PubChem BioAssay data set” (2004)
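Growth conditions: 96-well plates. Treatment: test compound, 48 hours, 5 concentrations. Analysis: linear interpolation between bracketing concentrations; unreached endpoints set to highest concentration. The concentration for 50% growth inhibition is given as GI50.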 Activity calls are given as the source filed them. Rule as the data show it: active = GI50 up to about 1.1 µM and inactive = higher.

How the values were obtained:
Assay in all cases: growth of human tumour cells (NCI), 48 h
786-0 = tested on: 786-0
CCRF-CEM = tested on: CCRF-CEM
SK-MEL-5 = tested on: SK-MEL-5
HOP-62 = tested on: HOP-62
SK-OV-3 = tested on: SK-OV-3
RPMI-8226 = tested on: RPMI-8226
SN12C = tested on: SN12C
HCC 2998 = tested on: HCC 2998
SNB-75 = tested on: SNB-75
KM12 = tested on: KM12
LOX IMVI = tested on: LOX IMVI
HOP-92 = tested on: HOP-92
NCI-H23 = tested on: NCI-H23
OVCAR-3 = tested on: OVCAR-3
HL-60 = tested on: HL-60
HCT-15 = tested on: HCT-15
MDA-MB-435 = tested on: MDA-MB-435
PC-3 = tested on: PC-3
NCI/ADR-RES = tested on: NCI/ADR-RES

Compound | GI50 (786-0) | GI50 (CCRF-CEM) | GI50 (SK-MEL-5) | GI50 (HOP-62) | GI50 (SK-OV-3) | GI50 (RPMI-8226) | GI50 (SN12C) | GI50 (HCC 2998) | GI50 (SNB-75) | GI50 (KM12) | GI50 (LOX IMVI) | GI50 (HOP-92) | GI50 (NCI-H23) | GI50 (OVCAR-3) | GI50 (HL-60) | GI50 (HCT-15) [µM] | GI50 (MDA-MB-435) | GI50 (PC-3) | GI50 (NCI/ADR-RES)
COc1ccc(-c2cc(O)c3ccc(F)cc3n2)cc1 | > 100 µM (inactive) | > 100 µM (inactive) | > 100 µM (inactive) | > 100 µM (inactive) | > 100 µM (inactive) | > 100 µM (inactive) | > 100 µM (inactive) | > 100 µM (inactive) | > 100 µM (inactive) | 77.4 µM (inactive) | > 100 µM (inactive) | > 100 µM (inactive) | > 100 µM (inactive) | > 100 µM (inactive) | > 100 µM (inactive) |  |  |  | 
CCCCCC(O)(CCCCC)CCCCCCCCC1=C(O)C(=O)c2ccc(=O)[nH]c2C1=O | 8.63 µM (inactive) | 5.62 µM (inactive) | 3.78 µM (inactive) | 10.4 µM (inactive) | 15.9 µM (inactive) | 4.12 µM (inactive) | 7.64 µM (inactive) | 14.5 µM (inactive) | 17.5 µM (inactive) | 11 µM (inactive) | 11.7 µM (inactive) | 13.3 µM (inactive) | 2.61 µM (inactive) | 4.23 µM (inactive) | 4.92 µM (inactive) | 4.22 |  |  | 
Cc1cc(NCCCCCCCCNc2cc(C)nc3cc(N(C)C)ccc23)c2ccc(N(C)C)cc2n1 | 7.16 µM (inactive) | 5.01 µM (inactive) |  | 12.2 µM (inactive) |  | 0.736 µM (active) | 1.64 µM (inactive) | 4.3 µM (inactive) |  | 2.82 µM (inactive) | 2.37 µM (inactive) | 2.58 µM (inactive) | 1.43 µM (inactive) | 3.86 µM (inactive) | 0.711 µM (active) | 34.8 |  |  | 
CCCCCCCCCCCCCCCCCCCCCC(=O)Nc1ccn(C2OC(CO)C(O)C2O)c(=O)n1 (stereo not drawn) | 9.62 µM (inactive) | 0.191 µM (active) | 29 µM (inactive) | 3.11 µM (inactive) | > 54.6 µM (inactive) | > 100 µM (inactive) | > 60.8 µM (inactive) | > 100 µM (inactive) | > 83.6 µM (inactive) | > 100 µM (inactive) | 9.89 µM (inactive) | > 40.8 µM (inactive) | 3.1 µM (inactive) | > 100 µM (inactive) | 10 µM (inactive) | > 96.2 |  |  | 
O=C(Cc1nc2c3c(ccc2nc1O)C(=O)c1ccccc1C3=O)C(=O)Nc1ccccc1[N+](=O)[O-] | 15.3 µM (inactive) | 2.51 µM (inactive) | 18.3 µM (inactive) | 18.3 µM (inactive) | 60 µM (inactive) | 11.4 µM (inactive) | > 10 µM (inactive) | 19.1 µM (inactive) |  | 18.7 µM (inactive) | 16.5 µM (inactive) | 20.7 µM (inactive) | 18.5 µM (inactive) | 11.5 µM (inactive) | 14.5 µM (inactive) | > 10 |  |  | 
NNC(=O)C(=O)N/N=C1\CCC(=O)CC1C(=O)CCC(=O)Nc1ccc(Cl)cc1 (stereo not drawn) | > 100 µM (inactive) | > 100 µM (inactive) | > 100 µM (inactive) |  | > 100 µM (inactive) | > 100 µM (inactive) | > 100 µM (inactive) | > 100 µM (inactive) | 39.4 µM (inactive) | 64 µM (inactive) | > 100 µM (inactive) |  | > 100 µM (inactive) | 95.3 µM (inactive) | > 100 µM (inactive) | 94.8 |  |  | 
Clc1cccc2c1OCC1C(c3ccccc3)=NN(c3ccccc3)C21 (stereo not drawn) | 55.6 µM (inactive) | 32.2 µM (inactive) | 23.8 µM (inactive) | > 100 µM (inactive) | > 100 µM (inactive) | 22.8 µM (inactive) |  | > 100 µM (inactive) | > 100 µM (inactive) | 87.1 µM (inactive) | 39.7 µM (inactive) | 64.4 µM (inactive) | > 100 µM (inactive) | > 100 µM (inactive) | 31.8 µM (inactive) |  |  |  | 
CCCCCCc1ccc(CCCCCCCC(=O)O)o1 | > 100 µM (inactive) | 48.5 µM (inactive) | > 100 µM (inactive) | > 100 µM (inactive) | > 100 µM (inactive) | 39.6 µM (inactive) | > 100 µM (inactive) | > 100 µM (inactive) | 55.7 µM (inactive) | 70.8 µM (inactive) | > 100 µM (inactive) | > 100 µM (inactive) | > 100 µM (inactive) | 34.2 µM (inactive) |  | 61.5 | > 100 µM (inactive) | > 100 µM (inactive) | > 100 µM (inactive)
O=C(c1ccncc1)n1nc(-c2ccccc2)c(/N=N/c2ccccc2[N+](=O)[O-])c1-c1ccccc1 | 76 µM (inactive) | 59.3 µM (inactive) | 21.6 µM (inactive) | 38.3 µM (inactive) | > 100 µM (inactive) | 28.3 µM (inactive) | > 100 µM (inactive) | 34.7 µM (inactive) | 15.7 µM (inactive) | 19.3 µM (inactive) |  | 35.6 µM (inactive) | 30 µM (inactive) | 45 µM (inactive) | 46.2 µM (inactive) |  |  |  | 
C/C(CC(=O)Nc1cc(C)ccc1C)=N\NC(=O)c1ccncc1 | > 100 µM (inactive) | > 100 µM (inactive) | > 100 µM (inactive) | > 100 µM (inactive) | > 100 µM (inactive) | > 100 µM (inactive) |  | > 100 µM (inactive) | > 100 µM (inactive) | > 100 µM (inactive) | > 100 µM (inactive) | 79.6 µM (inactive) | > 100 µM (inactive) | > 100 µM (inactive) | > 100 µM (inactive) |  |  |  | 
C[N+](C)(C)CC(CC(=O)[O-])C1CC1 (stereo not drawn) | > 100 µM (inactive) | > 100 µM (inactive) | > 100 µM (inactive) | > 100 µM (inactive) | > 100 µM (inactive) | > 100 µM (inactive) | > 100 µM (inactive) |  | > 100 µM (inactive) | > 100 µM (inactive) | > 100 µM (inactive) | > 100 µM (inactive) | > 100 µM (inactive) | > 100 µM (inactive) | > 100 µM (inactive) | > 100 |  |  | 
S=C(Nc1ccccc1)Nc1[nH]c(=S)sc1-c1nc2ccccc2[nH]1 | 34.2 µM (inactive) | > 100 µM (inactive) | 28.8 µM (inactive) | 23.1 µM (inactive) | 37.9 µM (inactive) | 97.3 µM (inactive) | > 100 µM (inactive) | > 100 µM (inactive) | 38.5 µM (inactive) | > 100 µM (inactive) | 61.4 µM (inactive) |  | > 100 µM (inactive) | 30.6 µM (inactive) | > 100 µM (inactive) | 98.2 |  |  | 
Cc1ccc(NC(=O)C(=O)CC(=O)C2CCOC2=O)c(C)c1 (stereo not drawn) | > 100 µM (inactive) | > 100 µM (inactive) | > 100 µM (inactive) | > 100 µM (inactive) | > 100 µM (inactive) | > 100 µM (inactive) | > 100 µM (inactive) | > 100 µM (inactive) | 76.2 µM (inactive) | > 100 µM (inactive) | > 100 µM (inactive) | > 100 µM (inactive) | > 100 µM (inactive) | > 100 µM (inactive) | > 100 µM (inactive) | > 100 |  |  | 
COc1cc(C(O)C(=O)c2cnc3cc([N+](=O)[O-])ccc3n2)ccc1O (stereo not drawn) | > 100 µM (inactive) | > 100 µM (inactive) | > 100 µM (inactive) | 85.5 µM (inactive) | > 100 µM (inactive) | > 100 µM (inactive) | > 100 µM (inactive) | > 100 µM (inactive) | > 100 µM (inactive) | > 100 µM (inactive) | 77.8 µM (inactive) |  |  |  | 86.5 µM (inactive) | > 100 |  |  | 
Cc1cc2c(cc1C)[n+]([O-])c(NCCCN(C)C)c(C#N)[n+]2[O-] | > 100 µM (inactive) | 57.3 µM (inactive) |  | > 100 µM (inactive) | 81.5 µM (inactive) | 16.1 µM (inactive) | 82.4 µM (inactive) | 88.3 µM (inactive) | 85.7 µM (inactive) | > 100 µM (inactive) | > 100 µM (inactive) | > 100 µM (inactive) | 80.9 µM (inactive) | 76.4 µM (inactive) | 45.3 µM (inactive) | 75.2 | > 100 µM (inactive) | > 100 µM (inactive) | 85.1 µM (inactive)
C=C1C2CC(OC(C)=O)C3(C)C(c4ccoc4)OC(=O)[C@@H](O)[C@]13OC1C[C@H](OC(C)=O)C(C)(C)[C@H](C(O)C(=O)OC)[C@]12C (stereo partly drawn) | > 100 µM (inactive) | > 100 µM (inactive) | > 100 µM (inactive) |  | > 100 µM (inactive) | > 100 µM (inactive) | > 100 µM (inactive) | > 100 µM (inactive) | 29.9 µM (inactive) | > 100 µM (inactive) | > 100 µM (inactive) | 4.17 µM (inactive) | > 100 µM (inactive) | > 100 µM (inactive) | > 100 µM (inactive) | > 100 |  |  | 
COc1cc(/C=C\c2ccc(Cl)cc2)cc(OC)c1OC | 0.113 µM (active) | 0.0964 µM (active) | 0.025 µM (active) | 0.302 µM (active) | 0.228 µM (active) | 0.143 µM (active) | 0.508 µM (active) | 1.73 µM (inactive) | 0.188 µM (active) | 0.173 µM (active) | 0.175 µM (active) | 0.326 µM (active) | 0.247 µM (active) | 0.102 µM (active) | 0.0251 µM (active) | 0.196 |  |  | 
O=c1oc2c(O)c(O)cc3c(=O)oc4c(O)c(O)cc1c4c23 [ELLAGIC ACID] | 27.2 µM (inactive) | > 10 µM (inactive) | > 10 µM (inactive) | > 10 µM (inactive) | 73.1 µM (inactive) | > 10 µM (inactive) | 38.1 µM (inactive) | > 10 µM (inactive) | 32.4 µM (inactive) | > 10 µM (inactive) | 93.5 µM (inactive) | 31 µM (inactive) | 47.9 µM (inactive) | 29.9 µM (inactive) | > 10 µM (inactive) | 79.8 |  |  | 
